Reference: patent US20220324865A1 (Bayer Aktiengesellschaft, priority 2018, published 2022)

Target: T1, human EP3 receptor (Homo sapiens, UniProt P43115)
T1 construct: expressed in transfected cells; host or cells: CHO K1 (Chinese Hamster Ovary), stably co-transfected with Galpha16 and mitochondrial clytin
T1 sequence (P43115 1-390): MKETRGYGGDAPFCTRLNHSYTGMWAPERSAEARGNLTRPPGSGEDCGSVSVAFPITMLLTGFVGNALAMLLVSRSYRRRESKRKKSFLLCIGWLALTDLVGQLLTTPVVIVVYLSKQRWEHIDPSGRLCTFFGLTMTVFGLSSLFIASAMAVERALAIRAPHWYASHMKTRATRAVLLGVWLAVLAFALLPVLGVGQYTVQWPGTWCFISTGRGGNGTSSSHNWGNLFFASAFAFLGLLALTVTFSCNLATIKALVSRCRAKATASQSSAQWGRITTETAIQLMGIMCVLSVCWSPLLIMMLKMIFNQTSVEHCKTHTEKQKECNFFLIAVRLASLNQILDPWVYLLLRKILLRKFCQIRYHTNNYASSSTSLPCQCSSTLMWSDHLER
Experiment: Cellular in vitro assay for determining EP3 receptor activity (human EP3 cell line, sulprostone-stimulated calcium luminescence)
Type: cell-based
Settings: CHO cells expressing human EP3 and mitochondrial Clytin; antagonist mode, sulprostone at EC50; read-out: EP3 CHO mtCLY ANTAG IC50
In short: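 Antagonist activity was measured as inhibition of the luminescent calcium signal elicited by EC50 sulprostone, following 10 min compound pretreatment. The cell line was recombinant CHO K1 co-expressing human EP3, Gα16 and the photoprotein Clytin, reconstituted with coelenterazine.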

Row | SMILES | IC50 [nM]
1 | COc1ccc(C(C)NC(=O)c2nn3c(C)c(-c4ccc5ccccc5c4)[nH]c(=O)c3c2C)cc1F (stereo not shown) [Example 3-74, N-[1-(3-Fluoro-4-methoxyphenyl)ethyl]-3,7-dimethyl-6-(2-naphthyl)-4-oxo-5H-pyrazolo[1,5-a]pyrazine-2-carboxamide] | 4.8
2 | O=C(N[C@@H](c1ccc(F)cc1)C(F)(F)CO)c1nn2cc(-c3ccc(Cl)c(Cl)c3)[nH]c(=O)c2c1C1CCC1 [6-567] | 2.5
3 | CC[C@@H](NC(=O)c1nn2cc(-c3ccc4ccccc4c3)[nH]c(=O)c2c1C#N)c1ccccc1 [Example 3-61, 3-Cyano-6-(naphthalen-2-yl)-4-oxo-N-[(1R)-1-phenylpropyl]-4,5-dihydropyrazolo[1,5-a]pyrazine-2-carboxamide] | 2
4 | CC(C)c1c(C(=O)N[C@@H](c2ccc(F)cc2)C(C)(C)O)nn2cc(-c3cccc(Cl)c3)[nH]c(=O)c12 [6-683] | 1.06
5 | Cc1cccc2ncc(-c3cn4nc(C(=O)NCCn5ccc(C6CC6)n5)c(C(C)C)c4c(=O)[nH]3)cc12 [Example 4-40, N-[2-(3-Cyclopropyl-1H-pyrazol-1-yl)ethyl]-6-(5-methylquinolin-3-yl)-4-oxo-3-(propan-2-yl)-4,5-dihydropyrazolo[1,5-a]pyrazine-2-carboxamide] | 0.85
6 | Cc1ccc(-c2cn3nc(C(=O)NC4(c5ccc(F)cc5)CCN(C)C4)cc3c(=O)[nH]2)cc1C (single isomer, unassigned) [6-363] | 46
7 | Cc1cc(-c2cn3nc(C(=O)NCC(C)(N)C(F)(F)F)c(C4CC4)c3c(=O)[nH]2)ccc1Cl (single isomer, unassigned) [6-320] | 1.35
8 | Cc1ccc(-c2[nH]c(=O)c3c(C4CC4)c(C(=O)N[C@@H](c4ccc(F)cc4)C(C)(C)O)nn3c2F)cc1Cl [6-664] | 5.25
9 | O=C(NC(CCO)c1ccc(F)cc1)c1cc2c(=O)[nH]c(-c3ccc4cccnc4c3)cn2n1 (stereo not shown) [Example 1-62, N-[1-(4-Fluorophenyl)-3-hydroxpropyl]-4-oxo-6-(7-quinolyl)-5H-pyrazolo[1,5-a]pyrazine-2-carboxamide] | 3.6
10 | Cc1ccc(-c2cn3nc(C(=O)N[C@H](CCO)c4ccc(F)cc4)c(C4CC4)c3c(=O)[nH]2)cc1C [Example 1-83, 3-Cyclopropyl-6-(3,4-dimethylphenyl)-N-[(1R)-1-(4-fluorophenyl)-3-hydroxpropyl]-4-oxo-4,5-dihydropyrazolo[1,5-a]pyrazine-2-carboxamide] | 0.523
11 | CC[C@@H](NC(=O)c1nn2c(C)c(-c3ccc4ccccc4c3)[nH]c(=O)c2c1C)c1ccccc1 [Example 3-33, 3,7-Dimethyl-6-(naphthalen-2-yl)-4-oxo-N-[(7R)-1-phenylpropyl]-4,5-dihydropyrazolo[1,5-a]pyrazine-2-carboxamide] | 2.2
12 | O=C(NC1CCN(CC(F)F)C1)c1nn2cc(-c3ccc4ccccc4c3)[nH]c(=O)c2c1C(F)(F)F (single isomer, unassigned) [6-519] | 6.9
13 | CC[C@@H](C)NC(=O)c1nn2cc(-c3ccc(C)c(Cl)c3)[nH]c(=O)c2c1C(F)(F)F [Example 1-152, N-[(2R)-Butan-2-yl]-6-(3-chloro-4-methylphenyl)-4-oxo-3-(trifluoromethyl)-4,5-dihydropyrazolo-[1,5-a]pyrazine-2-carboxamide] | 2.1
14 | Cc1ccc(-c2cn3nc(C(=O)N[C@H](C)c4ccc(F)cc4)c(C(C)C)c3c(=O)[nH]2)cc1C [Example 1-90, 6-(3,4-Dimethylphenyl)-N-[(1R)-1-(4-fluorophenyl)ethyl]-4-oxo-3-(propan-2-yl)-4,5-dihydropyrazolo[1,5-a]pyrazine-2-carboxamide] | 0.515
15 | Cc1ccc(-c2cn3nc(C(=O)N[C@@H](c4ccc(F)cc4)C(C)(C)O)c(C4CC4(F)F)c3c(=O)[nH]2)cc1Cl (stereo partly shown) [6-563] | 2.9
16 | O=C(N[C@@H](CCO)c1ccc(F)cc1)c1cc2c(=O)[nH]c(-c3ccc4ccccc4c3)cn2n1 [Example 1-69, N-[(1S)-1-(4-Fluorophenyl)-3-hydroxypropyl]-6-(naphthalen-2-yl)-4-oxo-4,5-dihydropyrazolo-[1,5-a]pyrazine-2-carboxamide] | 2.25

Row | SMILES | IC50 [nM]
17 | Cc1ccc(-c2cn3nc(C(=O)NC(C)c4ccc(O)cc4)cc3c(=O)[nH]2)cc1C (single isomer, unassigned) [6-348] | 3.55
18 | Cc1c(C(=O)NC(C)c2cccc(Br)c2)nn2c(C)c(-c3ccc4ccccc4c3)[nH]c(=O)c12 (stereo not shown) [Example 3-24, N-[1-(3-Bromophenyl)ethyl]-3,7-dimethyl-6-(2-naphthyl)-4-oxo-5H-pyrazolo[1,5-a]pyrazine-2-carboxamide] | 4.85
19 | Cc1cccc2ncc(-c3cn4nc(C(=O)NC5(c6ccccc6)CC5)c(C(C)C)c4c(=O)[nH]3)cc12 [Example 4-43, 6-(5-Methylquinolin-3-yl)-4-oxo-N-(1-phenylcyclopropyl)-3-(propan-2-yl)-4,5-dihydropyrazolo[1,5-a]pyrazine-2-carboxamide] | 0.84
20 | O=C(N[C@H](CN1CC(F)(F)C1)c1ccccc1)c1cc2c(=O)[nH]c(-c3ccc4ccccc4c3)cn2n1 [6-544] | 1.65
21 | COc1ccc(C(C)NC(=O)c2nn3c(C)c(-c4ccc5ccccc5c4)[nH]c(=O)c3c2C)cc1 (stereo not shown) [Example 3-57, N-[1-(4-Methoxyphenyl)ethyl]-3,7-dimethyl-6-(2-naphthyl)-4-oxo-5H-pyrazolo[1,5-a]pyrazine-2-carboxamide] | 2.95
22 | COc1ccc(C(CCO)NC(=O)c2cc3c(=O)[nH]c(-c4ccc(C)c(C(F)(F)F)c4)cn3n2)cc1 (stereo not shown) [6-32] | 7.5
23 | Cc1cc(-c2cn3nc(C(=O)N[C@@H](c4ccc(F)cc4)C(F)(F)CO)c(C4CCC4)c3c(=O)[nH]2)ccc1Cl [6-619] | 1.15
24 | Cc1ccc(-c2cn3nc(C(=O)NCC(O)C(F)(F)F)c(C)c3c(=O)[nH]2)cc1F (racemic) [6-409] | 7.12
25 | Cc1cc(-c2cn3nc(C(=O)NCC(O)C(F)(F)F)c(C4CC4)c3c(=O)[nH]2)ccc1Cl (single isomer, unassigned) [6-313] | 1.65
26 | Cc1ccc(-c2cn3nc(C(=O)NC4(c5ccc(F)cc5)CN(C)C4)c(C(F)(F)F)c3c(=O)[nH]2)cc1Cl [Example 1-153, 6-(3-Chloro-4-methylphenyl)-N-[3-(4-fluorophenyl)-1-methylazetidin-3-yl]-4-oxo-3-(trifluoromethyl)-4,5-dihydropyrazolo[1,5-a]pyrazine-2-carboxamide] | 5.4
27 | Cc1ccc(-c2cn3nc(C(=O)N[C@@H](C)C4CC4)c(C(F)(F)F)c3c(=O)[nH]2)cc1C [6-119] | 1.09
28 | Cc1cccc2ncc(-c3cn4nc(C(=O)NC5(c6ccc(F)cc6)CN(C)C5)c(C(C)C)c4c(=O)[nH]3)cc12 [Example 1-25, N-[3-(4-Fluorophenyl)-1-methylazetidin-3-yl]-6-(5-methylquinolin-3-yl)-4-oxo-3-(propan-2-yl)-4,5-dihydropyrazolo[1,5-a]pyrazine-2-carboxamide] | 5.8
29 | Cc1ccc(-c2cn3nc(C(=O)NC(C)c4ccc(F)cc4)cc3c(=O)[nH]2)cc1C(F)(F)F (stereo not shown) [6-25] | 9.1
30 | COCc1c(C(=O)N[C@@H](c2ccc(F)cc2)C(C)(C)O)nn2cc(-c3ccc(Cl)c(C)c3)[nH]c(=O)c12 [6-623] | 3.15
31 | COCc1c(C(=O)N[C@@H](C)C2CC2)nn2cc(-c3ccc(Cl)c(C)c3)[nH]c(=O)c12 [6-622] | 1.25
